Experimental data published in US20190092789A1, “HETEROBICYCLIC PYRIMIDINONE COMPOUNDS AND THEIR USE IN THE TREATMENT OF MEDICAL DISORDERS” (priority 2015, published 2019).
In brackets after ≈: the same amount, converted by molar mass.

How the values were obtained:
[1] = target: T1, glucocerebrosidase (Gcase) (Homo sapiens, UniProt P04062); experiment: Glucocerebrosidase (Gcase) activation assay, 4-methylumbelliferyl-beta-D-glucopyranoside substrate, with saposin C; assay type: biochemical; conditions: 10 nM GCase, 100 nM saposin C, pH 4.7; for activation at 0.1 µM: read-out: Percent Gcase Activation, 0.1 μM Test Compound; for activation at 1 µM: 0.25 h, read-out: Percent Gcase Activation, 1 μM Test Compound
T1 construct: 100 μL of micellar solution containing 10 nM GCase and 100 nM saposin C (Enzo ALX-201-262-C050)
T1 sequence (P04062 40-536): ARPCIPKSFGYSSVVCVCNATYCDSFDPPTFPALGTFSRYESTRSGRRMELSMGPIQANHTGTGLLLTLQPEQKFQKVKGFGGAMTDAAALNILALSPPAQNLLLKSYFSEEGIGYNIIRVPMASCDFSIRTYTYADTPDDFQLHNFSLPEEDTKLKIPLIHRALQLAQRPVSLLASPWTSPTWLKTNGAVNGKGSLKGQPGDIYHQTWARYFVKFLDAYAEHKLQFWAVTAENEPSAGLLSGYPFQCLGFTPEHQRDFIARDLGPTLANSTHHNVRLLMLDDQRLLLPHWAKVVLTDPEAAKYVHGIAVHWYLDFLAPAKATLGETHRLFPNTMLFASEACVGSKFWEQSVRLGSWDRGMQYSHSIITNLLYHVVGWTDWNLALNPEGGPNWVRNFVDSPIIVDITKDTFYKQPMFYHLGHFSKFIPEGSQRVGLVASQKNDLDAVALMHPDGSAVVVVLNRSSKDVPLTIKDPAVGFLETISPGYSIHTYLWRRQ
Method: A 484 μL aliquot of a 1.0 mg/mL solution of phosphatidylserine (PS) (Sigma P7769) in chloroform was evaporated under a stream of nitrogen for 1 hour. The lipid film was dissolved over 4 minutes of vigorous vortexing in 40 mL of 176 mM K2HPO4/50 mM citric acid (pH 4.7) containing 7.5 μL of triton X-100, resulting in a mixed micellar preparation with a composition of 0.32 mM triton and 0.37 mol % PS. 4-Methylumbelliferyl-beta-D-glucopyranoside (ACROS-337025000) was dissolved in the micellar solution to a final concentration of 2 mM for use as the reaction substrate.
Test compounds were diluted to the desired concentrations with dimethylsulfoxide (DMSO) from 10 mM stocks, and 0.41 μL of the DMSO compound mixture was added to 100 μL of micellar solution containing 10 nM GCase and 100 nM saposin C (Enzo ALX-201-262-C050). Pre-incubation was allowed to occur for 30 minutes at room temperature, after which the reaction was initiated by combining 25 μL of substrate solution with 25 μL of compound/GCase/saposin mixture. The reaction proceeded for 15 minutes at room temperature and was stopped by adding 150 μL of 1M glycine, pH 12.5. The endpoint of the reaction was monitored by measuring fluorescence intensity (excitation: 365 nm; emission: 440 nm) on a SpectraMax i3 instrument (Molecular Devices). Test compounds were screened at 1.0 and 0.1 μM final concentration, and subsequent 8-point dose response curves were obtained using 3-fold dilutions from a maximum final concentration of 5 μM.

[2] = Compound solubility in water

| Compound | activation at 0.1 µM ([1]; 0.1 μM test compound) | activation at 1 µM ([1]; 1 μM test compound) | solubility [2] | Percent Gcase Activation, 0.1 μM Test Compound ([1]; 0.1 μM test compound) | Percent Gcase Activation, 1 μM Test Compound ([1]; 1 μM test compound) |
| --- | --- | --- | --- | --- | --- |
| CCc1ccc(NC(=O)c2cnc3occn3c2=O)cc1 | < 5% | 5 to 10% | – | – | – |
| CCC(C)c1ccc(NC(=O)c2cnc3occn3c2=O)cc1 (stereo not shown) | < 5% | > 10% | 0.3 µg/mL (≈ 0.964 µM) | – | – |
| CCC(C)c1ccc(NC(=O)c2cnc3n(C)ccn3c2=O)cc1 (stereo not shown) | < 5% | > 10% | 0.5 µg/mL (≈ 1.54 µM) | – | – |
| CCC(C)c1ccc(NC(=O)c2cnc3[nH]ccn3c2=O)cc1 (stereo not shown) | < 5% | 5 to 10% | 1.4 µg/mL (≈ 4.51 µM) | – | – |
| O=C(NC1CCc2ccccc21)c1cnc2occn2c1=O (stereo not shown) | < 5% | 5 to 10% | 25.1 µg/mL (≈ 85 µM) | – | – |
| O=C(Nc1ccc2c(c1)OCCO2)c1cnc2occn2c1=O | < 5% | < 5% | 5.5 µg/mL (≈ 17.6 µM) | – | – |
| CCN1CCN(c2ccc(NC(=O)c3cnc4occn4c3=O)cc2)CC1 | < 5% | < 5% | 40.2 µg/mL (≈ 109 µM) | – | – |
| O=C(Nc1ccc(N2CCCCC2)cc1)c1cnc2occn2c1=O | < 5% | < 5% | 2.2 µg/mL (≈ 6.5 µM) | – | – |
| C[C@@H](NC(=O)c1cnc2occn2c1=O)c1ccccc1 | < 5% | < 5% | 25.6 µg/mL (≈ 90.4 µM) | – | – |
| O=C(NC1CCC(c2ccccc2)CC1)c1cnc2occn2c1=O (stereo not shown) | < 5% | > 10% | 58 µg/mL (≈ 172 µM) | – | – |
| CN1Cc2ccc(NC(=O)c3cnc4occn4c3=O)cc2C1 | < 5% | 5 to 10% | 16.6 µg/mL (≈ 53.5 µM) | – | – |
| O=C(NC1CCc2ccccc2C1)c1cnc2occn2c1=O (stereo not shown) | 5 to 10% | < 5% | 22.6 µg/mL (≈ 73.1 µM) | – | – |
| C#Cc1ccc(NC(=O)c2cnc3occn3c2=O)cc1 | 5 to 10% | 5 to 10% | 5.5 µg/mL (≈ 19.7 µM) | – | – |
| O=C(NC1CCCc2ccccc21)c1cnc2occn2c1=O (stereo not shown) | < 5% | > 10% | 30.2 µg/mL (≈ 97.6 µM) | – | – |
| N-(4-butylcyclohexyl)-6-oxo-3,4-dihydro-2H,6H-pyrimido[2,1-b][1,3]thiazine-7-carboxamide | – | – | – | + (less than 5% Gcase activation) | +++ (Gcase activation greater than 10%) |
